Common to all, as to assay type: functional
Experiment [1] deals with Chromobacterium violaceum. The experiment in a line: Antibacterial activity against Chromobacterium violaceum after 24 hrs by paper disk method.
Experiment [2] deals with Proteus mirabilis. The experiment in a line: Antibacterial activity against Proteus mirabilis after 24 hrs by paper disk method.
The subject of experiment [3] is Vibrio cholerae. The experiment in a line: Antibacterial activity against Vibrio cholerae after 24 hrs by paper disk method.

On to `C#C/C=C\C[C@@H]1O[C@H]2C[C@@H]1O[C@H](CC)[C@@H](Br)C[C@@H]2Cl`, for which, in experiment [1], the MIC turned out to be 100 µg.

Turning to `C[C@@H]1[C@]2(CC[C@@](C)(Cl)[C@H](Br)C2)[C@]2(C)CC[C@@]1(C)O2` [PANNOSANE], the MIC in experiment [1] turned out to be 60 µg.

Consider `C=C1[C@@H](C)CC[C@@](C)(O)[C@@]12CC[C@@](C)(Cl)[C@H](Br)C2` [PANNOSANOL], for which the MIC was 60 µg in experiment [2], 100 µg in experiment [3] and 100 µg in experiment [1].
